Inhibition data for 28 compounds are collected here from US12649712B2, “Indene compounds, pharmaceutical compositions thereof, and their therapeutic applications” (NucMito Pharmaceuticals Co. Ltd., priority 2020, dated 2026).

The experiment has as its system alpha-smooth muscle actin (α-SMA). The experiment can be described thus: Inhibition of TGF-β induced expression of alpha-smooth muscle actin (α-SMA) in CFSC cells, western blot. The experiment is classed as cell-based. The conditions noted are these: compound at 10 μM, TGF-β (10 ng/mL), 24 hours, decrease in band intensity vs TGF-β only. On the procedure:
The ability of a compound to inhibit the TGF-β induced expression of alpha-smooth muscle actin (α-SMA) was evaluated in CCL4-treated fat storing (CFSC) cells. α-SMA is considered as a reliable marker of hepatic stellate cell activation and a key biomarker for liver fibrosis. See, e.g., Meng et al., Nat. Rev. Nephrol. 2016, 12, 325-38; Fabregat et al., FEBS J. 2016, 283, 2219-32.
CFSC cells maintained in a DMEM medium supplemented with 10% fetal bovine serum were seeded to 12-well culture dishes and grown to a confluence of 60-70% the next day. Culture was changed to a serum-free DMEM medium and treated with a compound at 10 μM in the presence of TGF-β (10 ng/mL). The cells were incubated for another 24 hours. All culture was maintained at 37° C. in 5% carbon dioxide.
A NP-40 lysate solution (50 mM Tris (pH 7.4), 150 mM NaCl, 1% NP-40) with EDTA free cocktail added was used to lyse the cells on ice for 30 min. The lysate was collected and centrifuged at 4° C. for 10 min at 12,000 rpm. The pellet was discarded and the supernatant was transferred to a new tube. Cell lysates were loaded with 5×loading buffer and boiled for 10 min, resolved by 10% SDS-polyacrylamide gel electrophoresis (SDS-PAGE), and transferred to PVDF membrane. The membrane was blocked with 5% skim milk in Tris-buffered saline and TWEEN® 20 (TBST; 10 mM Tris-HCl (pH 8.0), 150 mM NaCl, 0.1% TWEEN® 20) for 1 h at room temperature and then incubated with α-SMA and […] antibodies overnight at 4° C. After washing twice with TBST, the membrane was probed with a horseradish […] anti-immunoglobulin (1:5000 dilution) for 1 h at room temperature. After two subsequent rinses in TBST, immunoreactive products were reacted with ECL and visualized by a UVP CHEMSTUDIO™ imaging system. The western blotting bands are quantitated using an ImageJ software. The percentage of inhibition was obtained by calculating the percentage decrease in the band intensity compared to the one treated with TGF-β only.
The results are summarized in Table 1, wherein A represents a value no less of 90% inhibition, B represents a value less than 90% but no less than 80% inhibition, C represents a value less than 80% but no less than 70% inhibition, D represents a value less than 70% but no less than 50% inhibition, and E represents a value less than 50% with a compound at 10 μM.

A value given as a limit tells only on which side of the number the result lay.

For the compound `CC1=C(CC(=O)O)c2cc(F)ccc2/C1=C\c1ccc(Oc2cccc(C(C)(C)C)c2)cc1` [Compound D3, 2-[(1Z)-5-Fluoro-2-methyl-1-({4-[3-(tert-butyl)phenoxy]phenyl}methylidene)-1H-inden-3-yl]acetic acid], the inhibition (usually the change of the read-out against control, counted positive when it falls) at 10 µM was above 90%.

Take `CC1=C(CC(=O)O)c2cc(F)ccc2/C1=C\c1ccc(Oc2ccc(F)cc2Br)cc1` [Compound A17, 2-[(1Z)-1-{[4-(2-bromo-4-fluorophenoxy)phenyl]methylidene}-5-fluoro-2-methyl-1H-inden-3-yl]acetic acid]: the inhibition at 10 µM is above 90%.

Consider `CC1=C(CC(=O)NO)c2cc(F)ccc2/C1=C\c1ccc(Oc2ccc(C(C)C)cc2)cc1` [Compound D1, 2-[(1Z)-5-Fluoro-2-methyl-1-({4-[4-(propan-2-yl)phenoxy]phenyl}methylidene)-1H-inden-3-yl]-N-hydroxyacetamide], for which the inhibition at 10 µM is above 90%.

In turn, `CC1=C(CCC(=O)O)c2ccccc2/C1=C\c1ccc(Oc2ccc(F)cc2)cc1` [Compound A19, 3-[(1Z)-1-{[4-(4-Fluorophenoxy)phenyl]methylidene}-2-methyl-1H-inden-3-yl]propanoic acid] yielded an inhibition at 10 µM above 90%.

`CC1=C(CC(=O)O)c2cc(F)ccc2/C1=C\c1ccc(Oc2ccc3ccccc3c2)cc1` [Compound A14, 2-[(1Z)-5-Fluoro-2-methyl-1-{[4-(naphthalen-2-yloxy)phenyl]methylidene}-1H-inden-3-yl]acetic acid] yielded an inhibition at 10 µM above 90%.

As for `COc1ccc2c(c1)C(CC(=O)O)=C(C)/C2=C/c1ccc(Oc2ccccc2)cc1` [Compound D11, 2-[(1Z)-5-Methoxy-2-methyl-1-[(4-phenoxyphenyl)methylidene]-1H-inden-3-yl]acetic acid], the inhibition at 10 µM was above 90%.

On to `CC(C)CC1=C(CC(=O)O)c2cc(F)ccc2/C1=C\c1ccc(Oc2ccc(F)cc2)cc1` [Compound D8, 2-[(1Z)-5-Fluoro-1-{[4-(4-fluorophenoxy)phenyl]methylidene}-2-(2-methylpropyl)-1H-inden-3-yl]acetic acid], for which the inhibition at 10 µM is above 90%.

`CC1=C(CC(=O)O)c2cc(F)ccc2/C1=C\c1ccc(Oc2cccc(C(F)(F)F)c2)cc1Cl` [Compound A3, 2-[(1Z)-1-({2-Chloro-4-[3-(trifluoromethyl)phenoxy]phenyl}methylidene)-5-fluoro-2-methyl-1H-inden-3-yl]acetic acid] displayed an inhibition at 10 µM above 90%.

The compound `CC1=C(CC(=O)O)c2cc(F)ccc2/C1=C\c1ccc(Oc2cccc(C(F)(F)F)c2)cc1` [Compound A9, (Z)-2-(5-Fluoro-2-methyl-1-(4-(3-(trifluoromethyl)phenoxy)benzylidene)-1H-inden-3-yl)acetic acid] registered an inhibition at 10 µM above 90%.

In the case of `CC1=C(CC(=O)O)c2cc(F)cc(F)c2/C1=C\c1cccc(Oc2ccccc2)c1` [Compound D20, 2-[(1Z)-5,7-Difluoro-1-(3-(phenoxy)benzylidene)-2-methyl-1H-inden-3-yl]-acetic acid], the inhibition at 10 µM is above 90%.

`CC1=C(CC(=O)N(C)O)c2cc(F)ccc2/C1=C\c1ccc(Oc2ccc(F)cc2)cc1` [Compound C2, 2-[(1Z)-5-Fluoro-1-{[4-(4-fluorophenoxy)phenyl]methylidene}-2-methyl-1H-inden-3-yl]-N-hydroxy-N-methylacetamide] displayed an inhibition at 10 µM above 90%.

`CC1=C(CC(=O)O)c2cc(F)ccc2/C1=C\c1ccc(N(C)c2ccccc2)cc1` [Compound A29, 2-[(1Z)-5-Fluoro-2-methyl-1-({4-[methyl(phenyl)amino]phenyl}methylidene)-1H-inden-3-yl]acetic acid]: the inhibition at 10 µM fell in the range of 70 to 80%.

Compound `CC1=C(CCc2nnn[nH]2)c2ccccc2/C1=C\c1ccc(Oc2ccc(C(C)C)cc2)cc1` [Compound A43, 5-{2-[(1Z)-2-Methyl-1-({4-[4-(propan-2-yl)phenoxy]phenyl}methylidene)-1H-inden-3-yl]ethyl}-1H-1,2,3,4-tetrazole] registered an inhibition at 10 µM above 90%.

With `CC1=C(CC(=O)O)c2cc(F)ccc2/C1=C\c1ccc(C2CC2)cc1` [Compound B37, 2-[(1Z)-1-[(4-cyclopropylphenyl)methylidene]-5-fluoro-2-methyl-1H-inden-3-yl]acetic acid], the inhibition at 10 µM was in the range of 80 to 90%.

In turn, `CC1=C(CC(=O)O)c2cc(F)ccc2/C1=C\c1ccc(Oc2cc(F)c(F)cc2F)cc1` [Compound A18, 2-[(1Z)-5-Fluoro-2-methyl-1-{[4-(2,4,5-trifluorophenoxy)phenyl]methylidene}-1H-inden-3-yl]acetic acid] displayed an inhibition at 10 µM of 70 to 80%.

In the case of `CC1=C(CC(=O)NO)c2cc(F)ccc2/C1=C\c1ccc(Oc2ccccc2)cc1` [Compound A23, 2-[(1Z)-5-Fluoro-2-methyl-1-[(4-phenoxyphenyl)methylidene]-1H-inden-3-yl]-N-hydroxyacetamide], the inhibition at 10 µM is above 90%.

Take `CC1=C(CCc2nnn[nH]2)c2ccccc2/C1=C\c1ccc(Oc2ccc3ccccc3c2)cc1` [Compound A51, 5-{2-[(1Z)-2-Methyl-1-{[4-(naphthalen-2-yloxy)phenyl]methylidene}-1H-inden-3-yl]ethyl}-1H-1,2,3,4-tetrazole]: the inhibition at 10 µM was above 90%.

In turn, `CC1=C(CC(=O)O)c2cc(F)ccc2/C1=C\c1ccc(Oc2cccc(C)c2)cc1` [Compound A7, 2-[(1Z)-5-Fluoro-2-methyl-1-{[4-(3-methylphenoxy)phenyl]methylidene}-1H-inden-3-yl]acetic acid] displayed an inhibition at 10 µM above 90%.

Turning to `CC1=C(Cc2nnn[nH]2)c2ccccc2/C1=C\c1ccc(Oc2ccccc2)cc1` [Compound A40, 5-{[(1Z)-2-Methyl-1-[(4-phenoxyphenyl)methylidene]-1H-inden-3-yl]methyl}-1H-1,2,3,4-tetrazole], the inhibition at 10 µM is above 90%.

Compound `CC1=C(CC(=O)O)c2cc(F)ccc2/C1=C\c1ccc(Oc2cccc([N+](=O)[O-])c2)cc1` [Compound D6, 2-[(1Z)-5-Fluoro-2-methyl-1-({4-[3-nitrophenoxy]phenyl}methylidene)-1H-inden-3-yl]acetic acid] displayed an inhibition at 10 µM below 50%.

In turn, `CC1=C(CC(=O)O)c2cc(F)ccc2/C1=C\c1cccc(Oc2cccc(C(F)(F)F)c2)c1` [Compound D27, 2-[(1Z)-5-Fluoro-2-methyl-1-({3-[3-trifluoromethylphenoxy]phenyl}-methylidene)-1H-inden-3-yl]acetic acid] had an inhibition at 10 µM above 90%.

In the case of `CC1=C(CC(=O)O)c2cc(F)ccc2/C1=C\c1ccc(Oc2ccc(C(C)C)cc2)cc1` [Compound A5, 2-[(1Z)-5-Fluoro-2-methyl-1-({4-[4-(propan-2-yl)phenoxy]phenyl}methylidene)-1H-inden-3-yl]acetic acid], the inhibition at 10 µM is above 90%.

`CC1=C(CC(=O)O)c2cc(F)ccc2/C1=C\c1cccc(Oc2ccc(C(F)(F)F)cc2)c1` [Compound D26, 2-[(1Z)-5-Fluoro-2-methyl-1-({3-[4-trifluoromethylphenoxy]phenyl}-methylidene)-1H-inden-3-yl]acetic acid] gave an inhibition at 10 µM above 90%.

For the compound `CNC(=O)CC1=C(C)/C(=C/c2ccc(Oc3ccc(F)cc3)cc2)c2ccc(F)cc21` [Compound A26, 2-[(1Z)-5-Fluoro-1-{[4-(4-fluorophenoxy)phenyl]methylidene}-2-methyl-1H-inden-3-yl]-N-methylacetamide], the inhibition at 10 µM is 70 to 80%.

On to `CC1=C(CC(=O)O)c2cc(F)ccc2/C1=C\c1ccc(Oc2ccc(C(C)(C)C)cc2)cc1` [Compound D2, 2-[(1Z)-5-Fluoro-2-methyl-1-({4-[4-(tert-butyl)phenoxy]phenyl}methylidene)-1H-inden-3-yl]acetic acid], for which the inhibition at 10 µM was above 90%.

Take `CC1=C(CCc2nnn[nH]2)c2ccccc2/C1=C\c1ccc(Oc2cccc(C)c2)cc1` [Compound A46, 5-{2-[(1Z)-2-Methyl-1-{[4-(3-methylphenoxy)phenyl]methylidene}-1H-inden-3-yl]ethyl}-1H-1,2,3,4-tetrazole]: the inhibition at 10 µM was above 90%.

`CC1=C(CC(=O)O)c2cc(F)ccc2/C1=C\c1ccc(N(CCO)c2ccc(F)cc2)cc1` [Compound A34, 2-[(1Z)-5-Fluoro-1-({4-[(4-fluorophenyl)(2-hydroxyethyl)amino]phenyl}-methylidene)-2-methyl-1H-inden-3-yl]acetic acid]: the inhibition at 10 µM is above 90%.

For `COc1ccc(Oc2ccc(/C=C3/C(C)=C(CC(=O)O)c4cc(F)ccc43)cc2)cc1` [Compound A2, 2-[(1Z)-5-Fluoro-1-{[4-(4-methoxyphenoxy)phenyl]methylidene}-2-methyl-1H-inden-3-yl]acetic acid], the inhibition at 10 µM is above 90%.
